In patent publication US10183919B2 (priority 2014, dated 2019) one finds EC50 data, which are given here for 33 compounds.

Some results are limits rather than exact numbers.

T1 sequence (P35372 whole entry): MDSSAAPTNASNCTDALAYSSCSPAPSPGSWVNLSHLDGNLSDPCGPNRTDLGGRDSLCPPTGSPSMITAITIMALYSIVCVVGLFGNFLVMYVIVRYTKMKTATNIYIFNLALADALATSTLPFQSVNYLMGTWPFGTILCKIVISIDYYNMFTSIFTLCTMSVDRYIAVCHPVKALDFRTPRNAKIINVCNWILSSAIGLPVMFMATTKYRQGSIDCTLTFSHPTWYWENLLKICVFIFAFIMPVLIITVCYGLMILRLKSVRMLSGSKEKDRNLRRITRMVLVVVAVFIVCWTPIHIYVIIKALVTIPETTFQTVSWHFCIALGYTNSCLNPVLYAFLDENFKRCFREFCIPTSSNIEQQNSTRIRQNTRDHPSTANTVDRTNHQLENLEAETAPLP

The first assay concerns the target T1, Human MOR (Homo sapiens, UniProt P35372).
T1 construct: expressed in transfected cells; host or cells: HEK-293T
Briefly: cell-based.
Details: not given
From the text: Transfection. Human or mouse MOR cDNA was transfected alongside GαoB with RLuc8 inserted at position 91 (GαoB-RLuc8), Gβ1 (β1), and Gγ2 fused to the full-length mVenus at its N terminus (mVenus-γ2) into HEK-293T cells (5×10^6 cells/plate) in 10-cm dishes using PEI (Polysciences Inc.; Warrington, Pa.) in a 1:1 ratio diluted in Opti-MEM (Life Technologies Corp.; Grand Island, N.Y.) to assay for G protein activation as described previously (Rives, M.-L. et al. J. Biol. Chem. 2012, 287, 27050-4; Negri, A.; Rives, M.-L.; Caspers, M. J. et al. J. Chem. Inf. Model. 2013, 53, 521-526). Cells were maintained in the Dulbecco's Modified Eagle Medium (high glucose #11965; Life Technologies) supplemented with 10% FBS (Premium Select, Atlanta Biologicals; Atlanta, Ga.) and 100 U/mL penicillin and 100 μg/mL streptomycin (#15140, Life Technologies). After 24 hours the media was changed, and the experiment was performed 24 hours later (48 hours after transfection).
BRET. Transfected cells were dissociated and resuspended in phosphate-buffered saline (PBS). Approximately 200,000 cells/well were added to a black-framed, white well 96-well plate (#60050; Perkin Elmer; Waltham, Mass.). The microplate was centrifuged and the cells were resuspended in PBS. Then 5 μM of the luciferase substrate coelenterazine H was added to each well for 5 minutes. Following coelenterazine H addition, ligands were added and the BRET signal was measured at 5 minutes on a PHERAstar FS plate reader. Quantification of the BRET signal required calculating the ratio of the light emitted by the energy acceptor, mVenus (510-540 nm), over the light emitted by the energy donor, RLuc8 (485 nm). […] Dose response curves were fit using three-parameter logistics equation in GraphPad Prism 6.
The EC50 is the midpoint of the concentration-response curve. As to `CCOC(=O)CCCCCCNC1c2ccccc2N(C)S(=O)(=O)c2ccc(Cl)cc21` (stereo not drawn) [compound 61, Ethyl 7-((2-chloro-6-methyl-5,5-dioxido-6,11-dihydrodibenzo[c,f] [1,2]thiazepin-11-yl)amino)heptanoate], the EC50 was under 10 µM.
The same measure, in the same setting: under `CN1c2ccccc2C(NCCCCCCC2=NCCO2)c2ccc(Cl)cc2S1(=O)=O` (stereo not drawn) [compound 58, 3-Chloro-11-((6-(4,5-dihydrooxazol-2-yl)hexyl)amino)-6-methyl-6,11-dihydrodibenzo[c,f][1,2]thiazepine 5,5-dioxide] stands under 10 µM; under `Cc1ccc2c(c1)S(=O)(=O)N(C)c1ccccc1C2NCCCCCCC(=O)O` (stereo not drawn) [compound 16], under 10 µM; under `CCOC(=O)CCCCCCNC1c2ccccc2S(=O)(=O)N(C)c2ccsc21` (stereo not drawn) [compound 6, Ethyl 7-((4-methyl-5,5-dioxido-4,10-dihydrobenzo[f]thieno[3,2-c][1,2]thiazepin-10-yl)amino) heptanoate], under 10 µM.
In turn, `CCSc1ccc2c(c1)S(=O)(=O)N(C)c1ccccc1C2NCCCOC` (stereo not drawn) [compound 64, 3-(Ethylthio)-11-((3-methoxypropyl)amino)-6-methyl-6,11-dihydrodibenzo[c,f][1,2]thiazepine 5,5-dioxide] showed an EC50 of under 10 µM.
On the same count and under the same terms, the figure for `COCCCNC1c2ccc(Cl)cc2N(C)S(=O)(=O)c2ccccc21` (stereo not drawn) [compound 69, 8-Chloro-11-((3-methoxypropyl)amino)-6-methyl-6,11-dihydrodibenzo [c,f][1,2]thiazepine 5,5-dioxide] is under 20 µM; for `COCCCNC1c2ccccc2N(C)S(=O)(=O)c2cc(-c3ccccc3)ccc21` (stereo not drawn) [compound 56, 11-((3-Methoxypropyl)amino)-6-methyl-3-phenyl-6,11-dihydrodibenzo[c,f][1,2]thiazepine 5,5-dioxide] it is under 10 µM; for `CCOC(CCCNC1c2ccccc2N(C)S(=O)(=O)c2cc(Cl)ccc21)OCC` (stereo not drawn) [compound 24, 3-Chloro-11-((4,4-diethoxybutyl)amino)-6-methyl-6,11-dihydrodibenzo[c,f][1,2]thiazepine 5,5-dioxide] it is under 10 µM.
Same read-out and setting: the figure for `CN1c2ccccc2C(NCCOCCO)c2ccc(Cl)cc2S1(=O)=O` (stereo not drawn) [compound 25, 3-Chloro-11-((2-(2-hydroxyethoxy)ethyl)amino)-6-methyl-6,11-dihydrodibenzo[c,f][1,2]thiazepine 5,5-dioxide] is 8.59 ± 0.5 µM.
`CN1c2ccccc2C(NCCCCCCC(=O)NCCO)c2ccc(Cl)cc2S1(=O)=O` (stereo not drawn) [compound 57, 7-((3-Chloro-6-methyl-5,5-dioxido-6,11-dihydrodibenzo [c,f][1,2]thiazepin-11-yl)amino)-N-(2-hydroxyethyl) heptanamide] yielded an EC50 of under 10 µM.
On the same count and under the same terms, under `CCOCCCNC1c2ccc(Cl)cc2S(=O)(=O)N(C)c2ccsc21` (stereo not drawn) [compound 78, 7-Chloro-10-((-ethoxypropyl)amino)-4-methyl-4,10-dihydrobenzo[f]thieno[3,2-c][1,2]thiazepine 5,5-dioxide] stands under 10 µM; under `CCOCCCNC1c2ccccc2N(C)S(=O)(=O)c2cc(I)ccc21` (stereo not drawn) [compound 76, 11-((3-Ethoxypropyl)amino)-3-iodo-6-methyl-6,11-dihydrodibenzo [c,f][1,2]thiazepine 5,5-dioxide], 0.145 µM; under `COCCCNC1c2ccccc2N(C)S(=O)(=O)c2cc(OC)ccc21` (stereo not drawn) [compound 27, 3-Methoxy-11-((3-methoxypropyl)amino)-6-methyl-6,11-dihydrodibenzo [c,f][1,2]thiazepine 5,5-dioxide], under 10 µM.
Same read-out and setting: the figure for `CCOCCCNC1c2ccc(Br)cc2S(=O)(=O)N(C)c2ccsc21` (stereo not drawn) [compound 73, 7-Bromo-10-((3-ethoxypropyl)amino)-4-methyl-4,10-dihydrobenzo[f]thieno[3,2-c][1,2]thiazepine 5,5-dioxide] is under 10 µM; for `CN1c2ccccc2C(NCCCCCCC(N)=O)c2ccc(Cl)cc2S1(=O)=O` (stereo not drawn) [compound 52] it is under 10 µM; for `COCCCNC1c2ccccc2S(=O)(=O)N(C)c2ccsc21` (stereo not drawn) [compound 7, 10-((3-Methoxypropyl)amino)-4-methyl-4,10-dihydrobenzo[f]thieno[3,2-c][1,2]thiazepine 5,5-dioxide] it is under 10 µM.
Regarding `CC(C)OCCCNC1c2ccccc2N(C)S(=O)(=O)c2cc(Cl)ccc21` (stereo not drawn) [compound 35, 3-Chloro-11-((3-isopropoxypropyl)amino)-6-methyl-6,11-dihydrodibenzo [c,f][1,2]azepine 5,5-dioxide], the EC50 was under 10 µM.
`COCCCNC1c2ccccc2N(C)S(=O)(=O)c2cc(SC(C)C)ccc21` (stereo not drawn) [compound 63, 3-(Isopropylthio)-11-((3-methoxypropyl)amino)-6-methyl-6,11-dihydrodibenzo[c,f][1,2]thiazepine 5,5-dioxide] registered an EC50 of under 10 µM.
Still for that read-out and setting: under `CN1c2ccccc2C(NCCCC(F)(F)F)c2ccc(Cl)cc2S1(=O)=O` (stereo not drawn) [compound 28, 3-Chloro-6-methyl-11-((4,4,4-trifluorobutyl)amino)-6,11-dihydrodibenzo [c,f][1,2]thiazepine 5,5-dioxide] stands under 10 µM; under `COCCCNC1c2cc(Br)ccc2N(C)S(=O)(=O)c2cc(Cl)ccc21` (stereo not drawn) [compound 11], under 10 µM; under `CSCCCNC1c2ccccc2N(C)S(=O)(=O)c2cc(Cl)ccc21` (stereo not drawn) [compound 33, 3-Chloro-6-methyl-11-((3-(methylthio)propyl)amino)-6,11-dihydrodibenzo[c,f][1,2]thiazepine 5,5-dioxide], under 10 µM.
Still for that read-out and setting: the figure for `COCCCNC1c2ccccc2N(C)S(=O)(=O)c2ccccc21` (stereo not drawn) [compound 10, 11-((3-Methoxypropyl)amino)-6-methyl-6,11-dihydrodibenzo[c,f][1,2]thiazepine 5,5-dioxide] is under 10 µM.
The same measure, in the same setting: the figure for `CN1c2ccccc2C(NCCCC2OCCCO2)c2ccc(Cl)cc2S1(=O)=O` (stereo not drawn) [compound 31, 11-((3-(1,3-Dioxan-2-yl)propyl)amino)-3-chloro-6-methyl-6,11-dihydrodibenzo[c,f][1,2]thiazepine 5,5-dioxide] is under 10 µM; for `CCOC(=O)CCCCCCNC1c2ccccc2N(C)S(=O)(=O)c2cc(C)ccc21` (stereo not drawn) [compound 14, Ethyl 7-((3,6-dimethyl-5,5-dioxido-6,11-dihydrodibenzo[c,f][1,2]thiazepin-11-yl)amino) heptanoate] it is under 10 µM.
In turn, `CC(=O)OCCCCCCNC1c2ccccc2N(C)S(=O)(=O)c2cc(Cl)ccc21` (stereo not drawn) [compound 13, 6-((3-Chloro-6-methyl-5,5-dioxido-6,11-dihydrodibenzo[c,f][1,2]thiazepin-11-yl)amino)hexyl acetate] returned an EC50 of under 10 µM.
Still for that read-out and setting: under `COCCNC1c2ccccc2N(C)S(=O)(=O)c2cc(Cl)ccc21` (stereo not drawn) [compound 42, 3-Chloro-11-((2-methoxyethyl)amino)-6-methyl-6,11-dihydrodibenzo [c,f][1,2]thiazepine 5,5-dioxide] stands under 10 µM; under `CN1CCCC1CCNC1c2ccccc2N(C)S(=O)(=O)c2cc(Cl)ccc21` (stereo not drawn) [compound 47], under 20 µM; under `COCC(C)CNC1c2ccccc2N(C)S(=O)(=O)c2cc(Cl)ccc21` (mixture of isomers) [compound 68, 3-Chloro-11-((3-methoxy-2-methylpropyl)amino)-6-methyl-6,11-dihydrodibenzo[c,f][1,2]thiazepine 5,5-dioxide], under 10 µM.
Consider `COCCCNC1c2ccccc2N(C)S(=O)(=O)c2cc(C)ccc21` (stereo not drawn) [compound 15, 11-((3-Methoxypropyl)amino)-3,6-dimethyl-6,11-dihydrodibenzo[c,f][1,2]thiazepine 5,5-dioxide], for which the EC50 is under 10 µM.
On to `CCOC(=O)CCCCCCNC1c2ccccc2N(C)S(=O)(=O)c2cc(I)ccc21` (stereo not drawn) [compound 49, Ethyl 7-((3-iodo-6-methyl-5,5-dioxido-6,11-dihydrodibenzo[c,f][1,2]thiazepin-11-yl)amino)heptanoate], for which it took 0.137 ± 0.017 µM to reach a half-maximal effect (EC50).

The same assay, now with this note: BRET G protein activation, HEK-293T; mean ± SEM of independent trials; read-out: EC50 Human MOR.
For `CCOCCCNC1c2ccccc2N(C)S(=O)(=O)c2cc(Cl)ccc21` (stereo not drawn) [compound 37, 3-Chloro-11-((3-ethoxypropyl)amino)-6-methyl-6,11-dihydrodibenzo [c,f][1,2]thiazepine 5,5-dioxide], the EC50 is 0.893 ± 0.147 µM.
For “7-((3-Iodo-6-methyl-5,5-dioxido-6,11-dihydrodibenzo [c,f][1,2]thiazepin-11-yl)amino)heptanoic acid hydrochloride salt [compound 84]”, the concentration for a half-maximal effect (EC50) was 0.04 µM.
Consider `COCCCNC1c2ccccc2N(C)S(=O)(=O)c2cc(OCc3ccccc3)ccc21` (stereo not drawn) [compound 75, 3-(Benzyloxy)-11-((3-methoxypropyl)amino)-6-methyl-6,11-dihydrodibenzo[c,f][1,2]thiazepine 5,5-dioxide], for which the 50% effective concentration (EC50) was over 20 µM.
